Results as given in PMC7881012, “Human ACE2 peptide-mimics block SARS-CoV-2 pulmonary cells infection” (Communications Biology, 2021).
Read-outs that look alike come from different tables or passages of the source. Square brackets hold non-standard residues; d marks the D form. Ends that are not written are not given here. Peptide text beside a SMILES is read from it. hTyr = N[C@@H](CCc1ccc(O)cc1)C(=O)O

Key:
[1] = Helical content by circular dichroism; type: physicochemical; conditions: 60 µM peptide, 50 mM sodium phosphate buffer pH 7.4, 25 °C, DichroWeb CDSSTR deconvolution
From the text: The conformation of synthesized peptides in aqueous solution was investigated by circular dichroism (CD) spectroscopy. […] The deconvolution of the CD spectra using DichroWeb[25] allowed us to estimate the helical population for each peptide, which is reported in Table 1. Overall, an excellent agreement was observed between the Agadir-computed values and the experimental helical population inferred from CD data. […] The introduction of a proline residue in peptide P5 has a strong destabilizing effect on helical conformation (17%) whereas Leu/hTyr substitution only led to a slight decrease of the helical content (P7 versus P6 and P10 versus P8).
Fig. 2 Far-UV CD spectra of synthesized peptides. […] CD measurements are reported as molar ellipticity per residue.
CD spectra were recorded on a Jasco J-815 CD spectropolarimeter equipped with a Peltier temperature controller. Data were obtained at 25 °C over a wavelength range between 185 nm and 270 nm, using a wavelength interval of 0.2 nm and a scan rate of 20 nm min^−1. Peptide samples were prepared at a concentration of 60 µM in 50 mM sodium phosphate buffer, pH 7.4, in a quartz cell of 1 mm path length. CD experiments were processed and plotted with R program. CD spectra were analyzed using DICHROWEB web server and CDSSTR deconvolution algorithm.

[2] = HPLC retention time (LC-MS method B); type: physicochemical; conditions: method B: X-Select CSH C18 XP, 0.1% formic acid water/acetonitrile, 5-100% B in 3.2 min, 1.8 mL min^−1, 40 °C; used as indicator of hydrophobicity
Solubility (qualitative) = type: physicochemical; conditions: qualitative statement
[3] = system: SARS-CoV-2 clinical isolate SARS-CoV-2/PSL2020 in Vero-E6 cells
[4] = system: SARS-CoV-2 clinical isolate SARS-CoV-2/PSL2020 in Calu-3 cells; conditions: clinical isolate /PSL2020 in Calu-3 cells, 48 h
[5] = system: SARS-CoV-2 clinical isolate SARS-CoV-2/PSL2020 in Calu-3 cells; type: cell-based
[6] = target: SARS-CoV-2 spike RBD (Fc-tagged 2019-nCoV RBD-SD1) (Severe acute respiratory syndrome coronavirus 2, UniProt P0DTC2); assay: biochemical; type: binding; conditions: for kon: read-out: ka, association constant; for koff: read-out: kdis, dissociation constant
Vero-E6 cells [7] = system: Vero-E6 cells
Vero-E6 cells [8] = conditions: 10 µM
Calu-3 cells [9] = conditions: 10 μM (150 times the IC50); MTT and annexin-V/PI, 24, 48 or 72 h (Fig. 3f)
Calu-3 cells [10] = system: Calu-3 cells
[11] = clinical isolate /PSL2020 in Vero-E6 cells, 48 h, 10 µM
[12] = BLI EXP1, sample conc. ACE2 10 nM, P8 100 nM, P9 and P10 1000 nM
[13] = BLI EXP2, sample conc. ACE2 100 nM, P8 1000 nM, P9 and P10 1111 nM

CC(C)C[C@H](NC(=O)[C@H](C)NC(=O)[C@H](CC(C)C)NC(=O)[C@H](C)NC(=O)[C@H](CC(C)C)NC(=O)[C@H](CCC(N)=O)NC(=O)[C@H](Cc1ccc(O)cc1)NC(=O)[C@H](CC(C)C)NC(=O)[C@H](CC(C)C)NC(=O)[C@H](CC(=O)O)NC(=O)[C@H](CCC(=O)O)NC(=O)[C@H](CC(C)C)NC(=O)[C@H](CCC(=O)O)NC(=O)[C@H](Cc1c[nH]cn1)NC(=O)[C@H](CC(C)C)NC(=O)[C@H](Cc1ccccc1)NC(=O)[C@H](CCCCN)NC(=O)[C@H](CC(=O)O)NC(=O)[C@H](CC(C)C)NC(=O)[C@H](Cc1ccccc1)NC(=O)[C@@H](NC(=O)[C@H](CCCCN)NC(=O)[C@H](CCc1ccc(O)cc1)NC(=O)[C@H](CCC(N)=O)NC(=O)[C@H](CCC(=O)O)NC(=O)[C@H](CCC(=O)O)NC(=O)[C@H](CC(C)C)NC(=O)[C@H](C)NC(=O)[C@@H](N)CO)[C@@H](C)O)C(N)=O [P7] (H-SALEEQ[hTyr]KTFLDKFLHELEDLLYQLALAL-NH2)
Experimental helical content% [1]: 63%
RT, HPLC retention time [2]: 2,57 min
solubility (Solubility (qualitative)): slight increase in solubility
% Inhibition of SARSCoV-2 replication at 10 μM ([3]; […], mean of at least three independent experiments): 54%
% Inhibition, Moyenne [3, 11]: 53.7%
% Inhibition, Q2 (Median) [3, 11]: 43.4%
IC50 [4]: > 1000 nM

SALEEQLKTFLDKFMHELEDLLYQLAL-NH2 [P8]
SARSCoV-2 virus titer at 1 μM (PFU mL^−1) on Calu-3 [5]: 0 PFU mL^−1
kon [6, 12]: 5610 M⁻¹ s⁻¹
koff [6, 12]: 8.94e-05 s⁻¹
kon [6, 13]: 4310 M⁻¹ s⁻¹
koff [6, 13]: 0.000137 s⁻¹
Experimental helical content% [1]: 70%
RT, HPLC retention time [2]: 2,45 min
solubility (Solubility (qualitative)): highly soluble
IC50 [4]: 46 nM
Cell viability (MTT) (Vero-E6 cells [7]; 72 h, 0.1 µM): 98%
toxicity in Vero-E6 (Vero-E6 cells [7]; MTT 0.1-10 µM and annexin-V/PI 10 µM, 24, 48 or 72 h (Fig. 3c)): devoid of toxicity
Cell death (AnnV+PI) (Vero-E6 cells [8]; 24 h, EXP1, flow cytometry): 3.74%
Cell death (AnnV+PI) (Vero-E6 cells [8]; 24 h, EXP2, flow cytometry): 3.24%
Cell death (AnnV+PI) (Vero-E6 cells [8]; 24 h, EXP3, flow cytometry): 5%
Cell death (AnnV+PI) (Vero-E6 cells [8]; 48 h, EXP1, flow cytometry): 5.63%
Cell death (AnnV+PI) (Vero-E6 cells [8]; 48 h, EXP2, flow cytometry): 4.63%
Cell death (AnnV+PI) (Vero-E6 cells [8]; 48 h, EXP3, flow cytometry): 4.26%
Cell death (AnnV+PI) (Vero-E6 cells [8]; 72 h, EXP1, flow cytometry): 4%
Cell death (AnnV+PI) (Vero-E6 cells [8]; 72 h, EXP2, flow cytometry): 3%
Cell death (AnnV+PI) (Vero-E6 cells [8]; 72 h, EXP3, flow cytometry): 3.48%
cytotoxicity in uninfected Calu-3 cells (Calu-3 cells [9]): no cytotoxicity
Cell death (AnnV+PI) (Calu-3 cells [10]; EXP1, peptide 10 µM, 24 h (0 µM: 16%)): 23%
Cell death (AnnV+PI) (Calu-3 cells [10]; EXP1, peptide 10 µM, 48 h (0 µM: 18%)): 20%
Cell death (AnnV+PI) (Calu-3 cells [10]; EXP1, peptide 10 µM, 72 h (0 µM: 23%)): 18%
Cell death (AnnV+PI) (Calu-3 cells [10]; EXP2, peptide 10 µM, 24 h (0 µM: 13%)): 16%
Cell death (AnnV+PI) (Calu-3 cells [10]; EXP2, peptide 10 µM, 48 h (0 µM: 17%)): 19%
Cell death (AnnV+PI) (Calu-3 cells [10]; EXP2, peptide 10 µM, 72 h (0 µM: 20%)): 22%
Cell death (AnnV+PI) (Calu-3 cells [10]; EXP3, peptide 10 µM, 24 h (Vehicle: 15%)): 23%
Cell death (AnnV+PI) (Calu-3 cells [10]; EXP3, peptide 10 µM, 48 h (Vehicle: 18%)): 20%
Cell death (AnnV+PI) (Calu-3 cells [10]; EXP3, peptide 10 µM, 72 h (Vehicle: 22%)): 18%
